Earlier results in patent US20240374540A1, “FORMULATIONS FOR THE TREATMENT OF OCULAR SURFACE DISEASES AND RELATED METHODS” (priority 2016, published 2024).

System: AQP5
Conditions: human airway epithelial cells (A459 cells)

For `Nc1c(Br)cc(Br)cc1CN[C@H]1CC[C@H](O)CC1` [ambroxol, Ambroxol], the “expression of AQP5” value is listed as “stimulate the expression of AQP5”.
